Measured values taken from patent US20100305068A1, “COMPOUNDS AND METHODS FOR MODULATING PROTEIN TRAFFICKING” (priority 2006, published 2010).

Tested on: pdr5 ypt1^ts cells
Test: microbe, parasite or virus in culture
Assay type: cell-based, yeast
Conditions: 37° C.; for optical density, 3.13 uM / optical density, 12.5 uM / optical density, 50 uM: Table 3, background (0 uM) 0.077; for optical density, 3.13 uM: 3.13 uM compound; for optical density, 12.5 uM: 12.5 uM compound; for optical density, 50 uM: 50 uM compound; for minimal effective concentration: Saccharomyces cerevisiae, lowest concentration tested giving growth above the 0 μM background, read-out: ypt1-ts MRC (minimal rescue concentration); for minimal effective concentration / optical density, ypt1-ts, 0.39 / optical density, ypt1-ts, 0.78 / optical density, ypt1-ts, 1.56 / optical density, ypt1-ts, 3.13 / optical density, ypt1-ts, 6.25 / optical density, ypt1-ts, 12.5 / optical density, ypt1-ts, 25: Table 2; for optical density, ypt1-ts, 0.39: 0.39 μM compound; for optical density, ypt1-ts, 0.39 / optical density, ypt1-ts, 0.78 / optical density, ypt1-ts, 1.56 / optical density, ypt1-ts, 3.13 / optical density, ypt1-ts, 6.25 / optical density, ypt1-ts, 12.5 / optical density, ypt1-ts, 25: background (0 μM) 0.058; for optical density, ypt1-ts, 0.78: 0.78 μM compound; for optical density, ypt1-ts, 1.56: 1.56 μM compound; for optical density, ypt1-ts, 3.13: 3.13 μM compound; for optical density, ypt1-ts, 6.25: 6.25 μM compound; for optical density, ypt1-ts, 12.5: 12.5 μM compound; for optical density, ypt1-ts, 25: 25 μM compound
Method in brief: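 Whole-cell yeast growth-rescue screen: pdr5 ypt1^ts cells (efflux pump inactivated), growth-arrested at 37° C., cultured with compounds at 37° C. Restoration of growth read by optical density.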

Compound	optical density, 3.13 uM	optical density, 12.5 uM	optical density, 50 uM	minimal effective concentration	optical density, ypt1-ts, 0.39	optical density, ypt1-ts, 0.78	optical density, ypt1-ts, 1.56	optical density, ypt1-ts, 3.13	optical density, ypt1-ts, 6.25	optical density, ypt1-ts, 12.5	optical density, ypt1-ts, 25
CC(=O)O[C@]1(C(C)=O)CC[C@H]2[C@@H]3C=C(C)C4=CC(=O)CC[C@]4(C)[C@H]3CC[C@@]21C [MEGESTROL ACETATE, reference compound]	0.222	0.341	0.202								
COc1c2occc2cc2ccc(=O)oc12 [METHOX- SALEN, reference compound]	0.124	0.25	0.38								
COc1cc(C)c2c(=O)cc(-c3ccccc3)oc2c1 [METHOXYVONE]				12.5 µM	0.095	0.09	0.09	0.105	0.114	0.142	0.258
CCOC(=O)c1c(C)cc(O)c(C)c1O [METHYL[…], ETHYL ESTER]				25 µM	0.082	0.073	0.072	0.084	0.097	0.119	0.259
CCN(CC)CCNC(=O)c1cc(Cl)c(N)cc1OC.Cl [METO- […]- CHLORIDE, reference compound]	0.099	0.158	0.555								
COC(=O)C[C@H]1C(C)(C)C(=O)[C@@H]2CC3=C4CC(=O)O[C@@H](c5ccoc5)[C@]4(C)CCC3[C@]1(C)C2=O (some centres unmarked) [MEXICANOLIDE]				6.25 µM	0.092	0.069	0.076	0.105	0.216	0.377	0.573
O=C1c2c(O)ccc(O)c2C(=O)c2c(NCCNCCO)ccc(NCCNCCO)c21 [MITO- XANTHRONE HYDRO- CHLORIDE, reference compound]	0.149	0.132	0.313								
CCOC(=O)C1=C(C)NC(C)=C(C(=O)OC)C1c1cccc([N+](=O)[O-])c1 (centres unmarked) [NITRENDIPINE, reference compound]				3.13 µM	0.11	0.089	0.103	0.143	0.309	0.403	0.481
COc1ccc(CC(=O)c2ccc(O)cc2O)cc1 [ONONETIN]				6.25 µM	0.097	0.08	0.096	0.111	0.14	0.3	0.618
Clc1ccc(Cl)cc1 [PARA- DICHLORO- BENZENE]	0.169	0.28	0.202								
COc1c(C(C)C)oc2cc3oc(=O)ccc3cc12 [PEUCEDANIN]	0.138	0.25	0.461								
CCCCC1C(=O)N(c2ccccc2)N(c2ccccc2)C1=O [PHENYLBUTAZONE, reference compound]				6.25 µM	0.1	0.084	0.094	0.11		0.227	0.452
O=C(/C=C/C=C/c1ccc2c(c1)OCO2)N1CCCCC1 [PIPERINE]	0.107	0.135	0.377								
CC(C)=CCOc1cc2oc(=O)ccc2cc1O [PRENYLETIN]				25 µM	0.087	0.072	0.07	0.087	0.09	0.121	0.292
COC(=O)[C@]1(C)CC[C@]2(C)CC[C@]3(C)C4=CC=C5C(=CC(=O)C(O)=C5C)[C@]4(C)CC[C@@]3(C)[C@@H]2C1 [PRISTIMERIN]					0.534	0.332	0.669	0.703	0.68	0.676	0.677
COC(=O)[C@]1(C)CC[C@]2(C)CC[C@]3(C)C4=CCc5c(cc(O)c(O)c5C)[C@]4(C)CC[C@@]3(C)[C@@H]2C1 [PRISTIMEROL]				6.25 µM	0.11	0.079	0.101	0.114	0.168	0.362	0.591
CC(=O)[C@H]1CC[C@H]2[C@@H]3CCC4=CC(=O)CC[C@]4(C)[C@H]3CC[C@]12C [PROGESTERONE, reference compound]				12.5 µM	0.089	0.083	0.091	0.098	0.12	0.15	0.316
CC(C)N(C(=O)CCl)c1ccccc1 [PROPACHLOR]				6.25 µM	0.101	0.085	0.098	0.121	0.141	0.177	0.184
CCC(=O)Nc1ccc(Cl)c(Cl)c1 [PROPANIL]				12.5 µM	0.084	0.072	0.076	0.097	0.108	0.217	0.564
CNC(=O)Oc1ccccc1OC(C)C [PROPOXUR]	0.194	0.289	0.231								
C/C=C(\C)C(=O)O[C@@H]1c2c(ccc3ccc(=O)oc23)OC(C)(C)[C@@H]1OC(C)=O [PTERYXIN]				6.25 µM	0.103	0.078	0.096	0.124	0.134	0.26	0.479
COc1ccc(/C=C/c2cc(O)cc(O)c2)cc1 [RESVERA- TROL 4′- METHYL ETHER]	0.08	0.103	0.331								
C[n+]1cc2c3c(ccc2c2ccc4cc5c(cc4c21)OCO5)OCO3.O=S(=O)([O-])O [SANGUINARINE SULFATE]				12.5 µM	0.092	0.076	0.077	0.089	0.111	0.165	0.345
CC1=CC(=O)[C@H]2C(C)(C)CCC[C@]2(C)[C@@]1(O)CCc1ccoc1 [SOLIDAGENONE]				6.25 µM	0.092	0.077	0.086	0.11	0.141	0.439	0.62
CCCCC1(COC(=O)CCC(=O)O)C(=O)N(c2ccccc2)N(c2ccccc2)C1=O [SUXIBUZONE, reference compound]				3.13 µM	0.101	0.078	0.093	0.127	0.173	0.329	0.536
COC(=O)C(O)[C@H]1C(C)(C)[C@@H](OC(C)=O)[C@@H]2CC3=C4CC(=O)O[C@@H](c5ccoc5)[C@]4(C)CCC3[C@]1(C)C2=O (some centres unmarked) [SWIETENOLIDE- 3-ACETATE]	0.425	0.629	0.619								
C=CCC1(C(C)CCC)C(=O)N=C([S-])NC1=O.[Na+] (centres unmarked) [THIAMYLAL SODIUM, reference compound]				12.5 µM	0.089	0.071	0.089	0.101	0.103	0.162	0.209
CC1(C)C(=O)C=C[C@]2(C)C3CC[C@@]4(C)[C@H](c5ccoc5)C[C@H]5O[C@]54C3[C@H](O)CC12 (some centres unmarked) [TRI- CHILENONE]	0.119	0.283	0.462								
